# How the values were obtained:
# [1] = biological target: anaplastic lymphoma kinase (ALK) (Homo sapiens, UniProt Q9UM73); conditions: background statement; cited from earlier work
# [2] = Excipient compatibility of 1:1 acid admixtures, HPLC after three months storage; format: physicochemical; conditions: 1:1 weight ratio dry powder mixture, open vial
# Method: (§1) The mixtures were prepared in duplicate for each sample, and stored in open top, 4 mL glass vials at (1) 60° C./dry heat and (2) 40° C. and 75% relative humidity (RH).
# The HPLC traces analyses were conducted on an Agilent 1100 LC, equipped with Agilent Diode Array Detector and Chemstation Software using the conditions found in the table below.
# [3] = human, in vivo
# [4] = Physical state and moisture uptake of 1:1 acid admixtures on storage; format: physicochemical; conditions: 40° C. and 75% RH, open top vial
# Method: as §1
# All admixture samples and the control samples stored at the 60° C. and dry heat condition remained as dry powders.
# [5] = biological target: TrkC (Homo sapiens, UniProt Q16288); conditions: background statement; cited from earlier work
# TrkC, sequence (Q16288 32-839): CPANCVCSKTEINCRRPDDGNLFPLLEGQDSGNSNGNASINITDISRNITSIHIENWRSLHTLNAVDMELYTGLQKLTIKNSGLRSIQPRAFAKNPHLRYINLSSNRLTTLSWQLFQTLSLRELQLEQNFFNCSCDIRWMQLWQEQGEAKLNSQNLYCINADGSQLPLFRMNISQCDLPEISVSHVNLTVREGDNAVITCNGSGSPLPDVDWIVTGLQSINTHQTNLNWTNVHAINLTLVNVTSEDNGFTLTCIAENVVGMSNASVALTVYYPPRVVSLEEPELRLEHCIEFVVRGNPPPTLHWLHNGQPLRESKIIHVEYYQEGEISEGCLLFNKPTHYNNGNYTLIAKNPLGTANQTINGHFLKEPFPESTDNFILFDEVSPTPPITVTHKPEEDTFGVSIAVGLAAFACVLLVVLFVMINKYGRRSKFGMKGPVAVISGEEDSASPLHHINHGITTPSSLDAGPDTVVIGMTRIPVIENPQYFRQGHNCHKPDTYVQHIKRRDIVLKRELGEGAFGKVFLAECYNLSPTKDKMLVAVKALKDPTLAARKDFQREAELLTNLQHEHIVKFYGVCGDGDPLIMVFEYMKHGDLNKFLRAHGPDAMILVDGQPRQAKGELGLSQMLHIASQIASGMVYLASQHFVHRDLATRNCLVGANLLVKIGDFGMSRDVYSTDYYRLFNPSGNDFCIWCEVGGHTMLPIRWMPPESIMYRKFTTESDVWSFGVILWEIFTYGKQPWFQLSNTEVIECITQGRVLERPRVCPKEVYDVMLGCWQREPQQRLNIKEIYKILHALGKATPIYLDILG
# [6] = Comparative pharmacokinetic study of F1 and F2 with lansoprazole (Example 12); format: in vivo, human; conditions: 800 mg fixed dose, 23 healthy subjects, body weights 55 to 106 kg
# Method: A comparative pharmacokinetic study in healthy, human subjects was conducted comparing a 200 mg dosage strength of pharmaceutical composition F1 (as described in Example 11) with a 200 mg dosage strength pharmaceutical composition F2 (as described in Example 10).
# Pharmaceutical compositions F1 and F2, along with and lansoprazole, were administered orally with approximately 240 mL of water, according to the randomization scheme. Lansoprazole was administered as 30 mg lansoprazole delayed-release capsules.
# Subjects were randomized into two groups, A and B. Periods 1 and 2 were conducted as a crossover design under fasting conditions where all subjects received F1 and F2. […] A representative summary of Periods 1, 2, and 3 and the pharmaceutical compositions subjects in groups A and B will receive in each Period is found below.
# Lansoprazole administration on days 1 to 9 was conducted in the morning, approximately 1.5 hours prior to administration of either F1 or F2 at hour 0 on day 4.
# Subjects were randomized and received 3 out of 4 treatments in one of the following sequences: […] (i.e., Periods 1 and 2 were conducted as a crossover design under fasting conditions [Treatments A and B]). […] Each subject received each of the 3 assigned treatments on one occasion.
# Treatments A and C utilized 200 mg strength F1 capsules.
# Treatments B and D utilized 200 mg F2 capsules. […]
# [7] = Single-dose food effect study in dogs; format: in vivo; conditions: formulation that did not comprise at least one acidulant
# Description: Such food effects can cause difficulty during human testing of drugs as the fed or fasted condition of the patient can cause exposure or bioavailability of drugs to vary widely.
# [8] = biological target: TrkB (Homo sapiens, UniProt Q16620); conditions: background statement; cited from earlier work
# TrkB, sequence (Q16620 32-822): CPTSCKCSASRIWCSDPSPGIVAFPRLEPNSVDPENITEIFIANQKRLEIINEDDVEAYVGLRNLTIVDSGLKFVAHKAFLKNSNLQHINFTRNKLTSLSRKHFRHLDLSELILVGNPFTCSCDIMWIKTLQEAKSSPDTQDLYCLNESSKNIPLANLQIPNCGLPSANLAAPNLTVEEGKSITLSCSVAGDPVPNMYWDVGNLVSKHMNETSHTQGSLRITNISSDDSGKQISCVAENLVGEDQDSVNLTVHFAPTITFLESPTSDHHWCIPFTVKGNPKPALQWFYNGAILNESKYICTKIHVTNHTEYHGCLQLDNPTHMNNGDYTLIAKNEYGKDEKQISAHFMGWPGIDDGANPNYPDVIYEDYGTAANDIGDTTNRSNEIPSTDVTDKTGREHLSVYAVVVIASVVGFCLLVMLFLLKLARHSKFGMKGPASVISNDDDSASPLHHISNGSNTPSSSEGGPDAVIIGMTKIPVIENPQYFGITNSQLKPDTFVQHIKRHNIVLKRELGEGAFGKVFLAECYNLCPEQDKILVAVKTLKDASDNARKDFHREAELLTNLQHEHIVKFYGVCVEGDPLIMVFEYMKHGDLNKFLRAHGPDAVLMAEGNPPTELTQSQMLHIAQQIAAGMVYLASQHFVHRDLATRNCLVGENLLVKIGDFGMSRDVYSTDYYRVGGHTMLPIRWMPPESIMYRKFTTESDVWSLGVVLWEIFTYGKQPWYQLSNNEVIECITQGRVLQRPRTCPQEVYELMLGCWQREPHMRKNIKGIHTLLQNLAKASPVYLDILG
# [9] = three months at 60° C. Dry Heat
# anaplastic lymphoma kinase (ALK), sequence (Q9UM73 19-1620): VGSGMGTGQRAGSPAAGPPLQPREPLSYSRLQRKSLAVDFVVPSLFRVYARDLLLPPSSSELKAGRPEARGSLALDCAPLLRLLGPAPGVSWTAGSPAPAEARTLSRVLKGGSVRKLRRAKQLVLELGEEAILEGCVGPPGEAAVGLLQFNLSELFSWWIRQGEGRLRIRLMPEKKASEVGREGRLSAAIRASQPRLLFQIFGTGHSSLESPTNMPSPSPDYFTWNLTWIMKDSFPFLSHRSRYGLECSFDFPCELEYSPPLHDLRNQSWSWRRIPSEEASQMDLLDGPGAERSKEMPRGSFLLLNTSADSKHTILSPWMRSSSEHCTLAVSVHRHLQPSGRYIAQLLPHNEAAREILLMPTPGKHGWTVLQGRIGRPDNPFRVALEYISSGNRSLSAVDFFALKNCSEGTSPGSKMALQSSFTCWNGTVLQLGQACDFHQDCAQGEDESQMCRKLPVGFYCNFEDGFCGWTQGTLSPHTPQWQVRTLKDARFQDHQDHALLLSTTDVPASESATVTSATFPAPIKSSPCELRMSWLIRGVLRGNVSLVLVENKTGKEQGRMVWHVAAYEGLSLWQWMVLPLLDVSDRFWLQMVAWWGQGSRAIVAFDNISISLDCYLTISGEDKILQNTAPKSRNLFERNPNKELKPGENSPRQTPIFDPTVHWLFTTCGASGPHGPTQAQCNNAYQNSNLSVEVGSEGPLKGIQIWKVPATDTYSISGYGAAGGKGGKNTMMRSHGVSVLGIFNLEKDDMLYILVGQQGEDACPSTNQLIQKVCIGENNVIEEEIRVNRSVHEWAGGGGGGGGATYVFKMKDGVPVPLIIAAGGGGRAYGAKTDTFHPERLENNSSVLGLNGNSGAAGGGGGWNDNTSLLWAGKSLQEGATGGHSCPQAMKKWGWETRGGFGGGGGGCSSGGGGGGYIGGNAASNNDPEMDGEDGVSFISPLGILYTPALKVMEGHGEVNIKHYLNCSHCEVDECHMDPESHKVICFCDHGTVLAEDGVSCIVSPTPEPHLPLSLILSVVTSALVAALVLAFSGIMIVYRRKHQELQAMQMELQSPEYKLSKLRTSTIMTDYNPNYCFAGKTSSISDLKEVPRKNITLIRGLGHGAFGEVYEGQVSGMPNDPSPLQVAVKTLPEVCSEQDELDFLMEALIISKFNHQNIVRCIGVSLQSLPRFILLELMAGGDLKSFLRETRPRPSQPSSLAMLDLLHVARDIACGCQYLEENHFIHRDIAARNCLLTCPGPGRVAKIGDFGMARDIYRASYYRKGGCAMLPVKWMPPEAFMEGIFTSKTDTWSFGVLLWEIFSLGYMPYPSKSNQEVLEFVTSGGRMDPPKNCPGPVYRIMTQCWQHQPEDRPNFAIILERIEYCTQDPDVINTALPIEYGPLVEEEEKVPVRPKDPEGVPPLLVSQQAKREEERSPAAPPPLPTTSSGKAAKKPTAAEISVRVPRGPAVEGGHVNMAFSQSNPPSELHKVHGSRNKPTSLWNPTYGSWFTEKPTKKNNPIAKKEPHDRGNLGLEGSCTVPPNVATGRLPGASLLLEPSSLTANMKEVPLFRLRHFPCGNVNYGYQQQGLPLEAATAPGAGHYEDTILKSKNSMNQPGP
smiles,measurement,setting,value
"CN1CCN(c2ccc(C(=O)Nc3n[nH]c4ccc(Cc5cc(F)cc(F)c5)cc34)c(NC3CCOCC3)c2)CC1 [N-[5-(3,5-difluorobenzyl)-1H-indazol-3-yl]-4-(4-methyl-piperazin-1-yl)-2-(tetrahydro-pyran-4-ylamino)-benzamide]",inhibition of tyrosine kinase,[1],potent inhibitor
same,% UV Purity,[2]; three months at 40° C./75% RH,99.2%
same,Most abundant impurity (area %),"[2]; three months at 40° C./75% RH, listed as Control",0.13%
same,Most abundant impurity (area %),"[2]; three months at 40° C./75% RH, listed as control",0.13%
same,% UV Purity,[2]; [9],99.3%
same,Most abundant impurity (area %),[2]; [9],0.13%
same,"exposures with concomitant proton pump inhibitor drugs (PPIs), such as lansoprazole",[3],variable
same,AUC higher when taken with food,[3]; 400 mg/m2,~50%
same,Cmax higher with food,[3]; 400 mg/m2,approximately 150%
same,physical state after 13 days of storage,[4],remained dry
same,inhibition of tyrosine kinase,[5],potent inhibitor
same,correlation of total exposure with body weight or body surface area,[6],did not correlate with body weight or body surface area
same,exposure levels under fed conditions compared to fasting conditions,[7],approximately 2 fold
same,inhibition of tyrosine kinase,[8],potent inhibitor
